Measurements taken from patent US9790235B2, “MK2 inhibitors and uses thereof” (Celgene CAR LLC, priority 2014, dated 2017).
Where two headings read alike, the source gives them in different places.

Assays:
[1] = molecular target: p38α activated, mitogen-activated protein kinase-activated protein kinase 2 (MAPKAP-K2 or MK2) enzyme (Homo sapiens (Human), UniProt P49137); experiment: MK2 Omnia continuous-read kinase assay for compound potency; type: biochemical; details: [MK-2]=0.4 nM, [ATP]=10 μM, [ST3-Sox]=10 μM; read-out: MK2 IC50
Chain of p38α activated, mitogen-activated protein kinase-activated protein kinase 2 (MAPKAP-K2 or MK2) enzyme (P49137 whole entry): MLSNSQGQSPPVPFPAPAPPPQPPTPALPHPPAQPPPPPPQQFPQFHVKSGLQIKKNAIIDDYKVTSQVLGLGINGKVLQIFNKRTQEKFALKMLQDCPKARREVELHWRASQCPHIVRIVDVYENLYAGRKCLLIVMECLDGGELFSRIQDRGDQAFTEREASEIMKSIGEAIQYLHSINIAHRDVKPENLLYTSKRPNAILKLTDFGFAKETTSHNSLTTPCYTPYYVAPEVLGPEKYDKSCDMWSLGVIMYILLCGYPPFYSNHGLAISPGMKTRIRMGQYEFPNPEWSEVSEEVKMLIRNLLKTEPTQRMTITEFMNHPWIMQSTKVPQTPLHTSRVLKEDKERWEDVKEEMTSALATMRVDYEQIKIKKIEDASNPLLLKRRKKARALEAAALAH
How it was run: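 Continuous fluorescence read (λex360/λem485) with 0.4 nM p38α-activated MK2, 10 μM ATP (apparent KM) and 10 μM S/T3-Sox peptide, monitored over 120 min at room temperature. Background-corrected initial slopes gave % inhibition and IC50 with Hill slope; exponential fits gave kobs, yielding apparent kinact/KI.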

MK2 [2] = molecular target: T1, MK2 (Homo sapiens (Human), UniProt P49137); details: percentage of modified protein after 60 minutes at room temperature, 10-fold excess of compound; MALDI (I-1 to I-50), magnetic bead MALDI (I-51 to I-129)
T1 sequence (P49137 whole entry): as above

MK2 [3] = molecular target: T1, MK2; experiment: MK2 cellular assay, total and phospho-Hsp27 (Serine 78) by MSD ELISA (Thp1); type: cell-based
Experimental: MK2 Cellular Assay—Detection of Total and Phospho-Hsp27 (Serine 78) by MSD ELISA (Thp1)
Compounds of the invention were assayed in Thp-1 human acute monocytic leukemia cells to measure inhibition of MK2 activity. Thp-1 cells were grown in culture medium containing RPMI/10% FBS (fetal bovine serum)/0.05 mM 2-mercaptoethanol. 72 hours prior to the assay, 8×10^4 cells per well were plated in a 96 well flat bottom plate along with 10 ng/mL phorbol 12-myristate 13-acetate (PMA). Cells were cultured in an incubator at 37° C. until needed for the assay. Cell plate media was replaced with culture media just prior to assay while compound dilutions were being made.
Stock solutions of test compound, 1 mM in DMSO, were prepared. 0.9 μl of test compound was added to 300 μl cell media for a starting concentration of 3000 nM. […] Cell plate media was discarded, followed by addition of 100 μl of the compound containing media. The resulting preparation was incubated at 37° C. for 1 hour.
Test compound-containing cell assay media was removed and the cells were washed once with cell assay media. Cell assay media containing 50 ng/mL LPS (lipopolysaccharide) was added to the each well and incubated for 45 minutes. Following LPS incubation, the cells were washed once with PBS (phosphate-buffered saline) and lysed with 60 μl Cell Extraction Buffer (Invitrogen #FNN0011) plus protease and phosphatase inhibitors. The plate was then stored at −80° C. until further analysis.
The MULTI-SPOT Phospho(Ser78)/Total HSP27 ELISA Assay kit was purchased from Meso Scale […] (MSD; catalog #K15128D). […] The pre-coated MSD plate was blocked with 150 μL/well of 3% BSA in MSD wash buffer. The preparation was placed on a shaker at room temperature for an hour. While the ELISA plate was blocked, the cell assay plate stored at −80° C. was placed on a shaker at 4° C. for 1 hour to thaw.
The blocked MSD plate was washed on a plate washer, tapping out the last bit of wash solution, followed by addition of 30 μl of the lysate from the cell assay plate. The preparation was covered and incubated for 1 hour at room temperature. The lysate was removed, the plate was washed 3 times on a plate washer and the last bit of wash buffer was tapped out and replaced with 25 μl/well detection antibody (anti-total HSP27 conjugated with an electrochemiluminescent compound, MSD SULFO-TAG label, supplied in kit) made in 1% BSA/MSD wash buffer. The plate was incubated for 1 hour at room temperature on a shaker, followed by 3 washes. The last bit of wash buffer was tapped out. 150 μl/well 1×MSD read buffer was added (4× read buffer supplied with kit) and the plate was analyzed on the MSD SECTOR® Imager for analysis. The SECTOR® Imager measures intensity of emitted light to provide a quantitative measure of phosphorylated HSP27 (Ser78) and total HSP27 present in the sample. The relative percent phosphoprotein in a sample is calculated by dividing the Phospho-HSP27 signal intensity over the total HSP27 signal intensity measured in each well.

[4] = Thp-1 cells, 1 hour compound, 50 ng/mL LPS 45 minutes, p-HSP27 (Ser78)/total HSP27, read-out: pHSP27 signaling EC50
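Throughout, for Mass Modification: covalent binding read from centroid mass shift of compound-treated versus untreated intact MK2, shift divided by compound molecular weight, giving fraction of total protein bound.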

Row | EC50 (MK2 [3]) | Compound | IC50 [1] | Mass Modification (MK2 [2]) | EC50 (MK2 [3]; [4])
1 | 101 to 500 nM | COCCOc1nc(F)cc(Nc2ccc3c(ccc4sc5c(c43)NC[C@@H](C)NC5=O)n2)n1 [I-44, (R)-3-((6-fluoro-2-(2-methoxyethoxy)pyrimidin-4-yl)amino)-10-methyl-9,10,11,12-tetrahydro-8H-[1,4]diazepino[5′,6′:4,5]thieno[3,2-f]quinolin-8-one] | < 100 nM | G (mass modification ≦30%) | 
2 | > 1000 nM | COCCOc1cc(F)nc(Nc2ccc3c(ccc4sc5c(c43)NC[C@@H](C)NC5=O)n2)n1 [I-45, (R)-3-((4-fluoro-6-(2-methoxyethoxy)pyrimidin-2-yl)amino)-10-methyl-9,10,11,12-tetrahydro-8H-[1,4]diazepino[5′,6′:4,5]thieno[3,2-f]quinolin-8-one] | < 100 nM | G (mass modification ≦30%) | 
3 | 101 to 500 nM | C[C@@H]1CNc2c(sc3ccc4nc(Nc5cc(F)nc(OC6CCCN(C)C6)n5)ccc4c23)C(=O)N1 (stereo partly drawn) [I-47, (10R)-3-((6-fluoro-2-((1-methylpiperidin-3-yl)oxy)pyrimidin-4-yl)amino)-10-methyl-9,10,11,12-tetrahydro-8H-[1,4]diazepino[5′,6′:4,5]thieno[3,2-f]quinolin-8-one] | < 100 nM | F (mass modification of 31-69%) | 
4 |  | C[C@@H]1CNc2c(sc3ccc4nc(Oc5ccnc(Cl)n5)ccc4c23)C(=O)N1 [I-53, (R)-3-((2-chloropyrimidin-4-yl)oxy)-10-methyl-9,10,11,12-tetrahydro-8H-[1,4]diazepino[5′,6′:4,5]thieno[3,2-f]quinolin-8-one] | < 100 nM | F (mass modification of 31-69%) | 101 to 500 nM
5 |  | C[C@@H]1CNc2c(sc3ccc4nc(Sc5cc(F)ncn5)ccc4c23)C(=O)N1 [I-54, (R)-3-((6-fluoropyrimidin-4-yl)thio)-10-methyl-9,10,11,12-tetrahydro-8H-[1,4]diazepino[5′,6′:4,5]thieno[3,2-f]quinolin-8-one] | < 100 nM | E (mass modification of ≧70%) | > 1000 nM
6 |  | C[C@@H]1CNc2c(sc3ccc4nc(Oc5cncc(Cl)n5)ccc4c23)C(=O)N1 [I-55, (R)-3-((6-chloropyrazin-2-yl)oxy)-10-methyl-9,10,11,12-tetrahydro-8H-[1,4]diazepino[5′,6′:4,5]thieno[3,2-f]quinolin-8-one] | 101 to 500 nM | G (mass modification ≦30%) | > 1000 nM
7 |  | C[C@@H]1CNc2c(sc3ccc4nc(Oc5cc(Cl)ncn5)ccc4c23)C(=O)N1 [I-56, (R)-3-((6-chloropyrimidin-4-yl)oxy)-10-methyl-9,0,11,12-tetrahydro-8H-[1,4]diazepino[5′,6′:4,5]thieno[3,2-f]quinolin-8-one] | < 100 nM | E (mass modification of ≧70%) | < 100 nM
8 |  | COCc1nc(Cl)cc(Oc2ccc3c(ccc4sc5c(c43)NC[C@@H](C)NC5=O)n2)n1 [I-57, (R)-3-((6-chloro-2-(methoxymethyl)pyrimidin-4-yl)oxy)-10-methyl-9,10,11,12-tetrahydro-8H-[1,4]diazepino[5′,6′:4,5]thieno[3,2-f]quinolin-8-one] | < 100 nM | E (mass modification of ≧70%) | < 100 nM
9 |  | Cc1nc(Cl)cc(Oc2ccc3c(ccc4sc5c(c43)NC[C@@H](C)NC5=O)n2)n1 [I-58, (R)-3-((6-chloro-2-methylpyrimidin-4-yl)oxy)-10-methyl-9,10,11,12-tetrahydro-8H-[1,4]diazepino[5′,6′:4,5]thieno[3,2-f]quinolin-8-one] | < 100 nM | E (mass modification of ≧70%) | < 100 nM
10 |  | C[C@@H]1CNc2c(sc3ccc4nc(Nc5cc(Cl)nc(OC6CCCN(C)C6)n5)ccc4c23)C(=O)N1 (stereo partly drawn) [I-59, (10R)-3-((6-chloro-2-((1-methylpiperidin-3-yl)oxy)pyrimidin-4-yl)amino)-10-methyl-9,10,11,12-tetrahydro-8H-[1,4]diazepino[5′,6′:4,5]thieno[3,2-f]quinolin-8-one] | < 100 nM | E (mass modification of ≧70%) | 501 to 999 nM
11 |  | C[C@@H]1CNc2c(sc3ccc4nc(Nc5cc(Cl)nc(O[C@@H]6CCN(C)C6)n5)ccc4c23)C(=O)N1 [I-60, (R)-3-((6-chloro-2-(((R)-1-methylpyrrolidin-3-yl)oxy)pyrimidin-4-yl)amino)-10-methyl-9,10,11,12-tetrahydro-H-[1,4]diazepino[5′,6′:4,5]thieno[3,2-f]quinolin-8-one] | < 100 nM | F (mass modification of 31-69%) | 101 to 500 nM
12 |  | C[C@@H]1CNc2c(sc3ccc4nc(Nc5nc(Cl)cc(OCCN6CCN(C)CC6)n5)ccc4c23)C(=O)N1 [I-61, (R)-3-((4-chloro-6-(2-(4-methylpiperazin-1-yl)ethoxy)pyrimidin-2-yl)amino)-10-methyl-9,10,11,12-tetrahydro-8H-[1,4]diazepino[5′,6′:4,5]thieno[3,2-f]quinolin-8-one] | < 100 nM | G (mass modification ≦30%) | > 1000 nM
13 |  | C[C@@H]1CNc2c(sc3ccc4nc(Oc5nc(Cl)nc(N6CCCC6)n5)ccc4c23)C(=O)N1 [I-62, (R)-3-((4-chloro-6-(pyrrolidin-1-yl)-1,3,5-triazin-2-yl)oxy)-10-methyl-9,10,11,12-tetrahydro-8H-[1,4]diazepino[5′,6′:4,5]thieno[3,2-f]quinolin-8-one] | < 100 nM | E (mass modification of ≧70%) | 101 to 500 nM
14 |  | C[C@@H]1CNc2c(sc3ccc4nc(Oc5nc(Cl)nc(N6CCOCC6)n5)ccc4c23)C(=O)N1 [I-63, (R)-3-((4-chloro-6-morpholino-1,3,5-triazin-2-yl)oxy)-10-methyl-9,10,11,12-tetrahydro-8H-[1,4]diazepino[5′,6′:4,5]thieno[3,2-f]quinolin-8-one] | < 100 nM | E (mass modification of ≧70%) | < 100 nM
15 |  | C[C@@H]1CNc2c(sc3ccc4nc(Oc5nc(Cl)nc(N6CCCCC6)n5)ccc4c23)C(=O)N1 [I-64, (R)-3-((4-chloro-6-(piperidin-1-yl)-1,3,5-triazin-2-yl)oxy)-10-methyl-9,10,11,12-tetrahydro-8H-[1,4]diazepino[5′,6′:4,5]thieno[3,2-f]quinolin-8-one] | < 100 nM | E (mass modification of ≧70%) | > 1000 nM
16 |  | Cc1nc(F)cc(Oc2ccc3c(ccc4sc5c(c43)NC[C@@H](C)NC5=O)n2)n1 [I-65, (R)-3-((6-fluoro-2-methylpyrimidin-4-yl)oxy)-10-methyl-9,10,11,12-tetrahydro-8H-[1,4]diazepino[5′,6′:4,5]thieno[3,2-f]quinolin-8-one] | < 100 nM | E (mass modification of ≧70%) | 101 to 500 nM
17 |  | C[C@@H]1CNc2c(sc3ccc4nc(Nc5cc(Cl)nc(OCCN6CCN(C)CC6)n5)ccc4c23)C(=O)N1 [I-66, (R)-3-((6-chloro-2-(2-(4-methylpiperazin-1-yl)ethoxy)pyrimidin-4-yl)amino)-10-methyl-9,10,11,12-tetrahydro-8H-[1,4]diazepino[5′,6′:4,5]thieno[3,2-f]quinolin-8-one] | < 100 nM | F (mass modification of 31-69%) | 101 to 500 nM
